From patent US11779576B2, “Method of treating C3 glomerulopathy” (CHEMOCENTRYX, INC., priority 2016, dated 2023)
Entries after “also recorded” stand apart in the source; their conditions may differ.

Tests used:
[1] = tested on: patient with progressive complement 3 glomerulonephritis (recurrent C3GN in a renal transplant); experiment: Study of compound 1 in a patient with progressive C3 glomerulonephritis: eGFR, proteinuria, clinical condition; assay type: in vivo, human
Text: Under the Special Needs program in the United Kingdom (which is similar to a compassionate use protocol in the US), a C3 glomerulonephritis patient received treatment with the orally administered complement inhibitor compound 1, following the protocol detailed below. The patient had refractory disease despite a kidney transplant and prior treatment with the broadly immunosuppressive drugs rituximab, cyclophosphamide, mycophenolate mofetil, tacrolimus, and steroids. Renal allograft biopsies were taken pre-dose, 2 and 7 months during therapy. The primary efficacy objective is to evaluate the efficacy of compound 1 based on change from baseline in eGFR (MDRD, Estimated Glomerular Filtration Rate) and proteinuria. The patient will have biopsy proven recurrent […] prior to start of dosing, and be deemed eligible based on the inclusion and exclusion criteria. Screening procedures will include recording of demographics, medical history, medication history, physical examination and vital signs, serum chemistry, hematology, urinalysis (including UPCR measurement), viral screening (if not performed within prior 12 weeks), and estimated glomerular filtration rate (eGFR) assessment based on serum creatinine. The baseline eGFR needs to be at least 25 mL/min/1.73 m^2 for study eligibility. On Day 1, the patient will start compound 1 treatment. Patients will take compound 1 30 mg orally twice daily for an initial period of 84 days. The patient will visit the study center on Days 1, 8, 15, 29, 57, and 85. The compound 1 dose will be taken in the morning optimally within one hour after breakfast and in the evening optimally within one hour after dinner. If the patient's clinical condition stabilizes or improves, and there are no adverse events preventing further treatment, the patient may be treated for another 84-day treatment cycle. The 84-day cycles may be repeated for a total of up to 4 cycles under this protocol. For the 84-day cycles after the first cycle, the patient will visit the study center every 4 weeks. There will be 4-week follow-up period after the patient stops the compound 1 treatment. Efficacy Assessments Include: • 1. First morning urinary PCR; • 2. eGFR by Modification of Diet in Renal Disease (MDRD) formula based on serum creatinine; • 3. Plasma and urine pharmacodynamic markers, e.g., MCP-1, C3a, C5a, properdin, and sC5b-9; • 4. Glomerular inflammation (e.g., crescents, inflammatory cell infiltrate, endocapillary proliferation) and C3 deposition in a follow-up renal biopsy sample; Pharmacokinetic Assessments

[2] = tested on: glomeruli of renal allograft of C3 glomerulonephritis patient; experiment: Renal allograft biopsies (histology, immunofluorescence, CD68 staining) pre-dose and at 2 and 7 months of compound 1 therapy; assay type: in vivo, human; conditions: for Endocapillary hypercellularity/total: pre-treatment 3/11; for CD68-positive cells/glomerulus: pre-treatment 11; for Immunoflourescence microscopy, IgM: pre-treatment trace; for glomerular inflammation: after treatment, PAS staining (FIG. 2)
Text: Under the Special Needs program in the United Kingdom (which is similar to a compassionate use protocol in the US), a C3 glomerulonephritis patient received treatment with the orally administered complement inhibitor compound 1, following the protocol detailed below. The patient had refractory disease despite a kidney transplant and prior treatment with the broadly immunosuppressive drugs rituximab, cyclophosphamide, mycophenolate mofetil, tacrolimus, and steroids. Renal allograft biopsies were taken pre-dose, 2 and 7 months during therapy. […] Protocol of the Study Aim Efficacy Assessments Include: • 1. First morning urinary PCR; • 2. eGFR by Modification of Diet in Renal Disease (MDRD) formula based on serum creatinine; • 3. Plasma and urine pharmacodynamic markers, e.g., MCP-1, C3a, C5a, properdin, and sC5b-9; • 4. Glomerular inflammation (e.g., crescents, inflammatory cell infiltrate, endocapillary proliferation) and C3 deposition in a follow-up renal biopsy sample; Pharmacokinetic Assessments Renal biopsies will be analyzed by periodic acid—Schiff (PAS) staining, immunofluorescence staining for C3, C5b-9, and potentially other markers. Electron microscopy may also be performed.

Compound: Cc1ccc(NC(=O)[C@H]2CCCN(C(=O)c3c(C)cccc3F)[C@H]2c2ccc(NC3CCCC3)cc2)cc1C(F)(F)F [compound 1]
- patient's condition in response to treatment ([1]; C3 glomerulonephritis patient, refractory disease after kidney transplant, compound 1 30 mg orally twice daily): improved
- eGFR decline ([1]; after 1 month of treatment (FIG. 1)): attenuated
- eGFR ([1]; during compound 1 treatment): stabilized
- eGFR decline ([1]; eGFR 83 mL/min/1.73 m^2 14 months prior, 46 mL/min/1.73 m^2 at start of treatment): attenuated or stopped
- Proteinuria drop ([1]; with compound 1 treatment, 30 mg orally twice daily): approximately 80%
- Endocapillary hypercellularity/total ([2]; 2 months of therapy): 0/36
- CD68-positive cells/glomerulus ([2]; 2 months of therapy): 2-3 cells/glomerulus
- Immunoflourescence microscopy, IgM ([2]; 2 months of therapy): neg
- Endocapillary hypercellularity/total ([2]; 7 months of therapy): 0/14
- CD68-positive cells/glomerulus ([2]; 7 months of therapy): 1-2 cells/glomerulus
- Immunoflourescence microscopy, IgM ([2]; 7 months of therapy): neg
- glomerular inflammation [2]: reduction
- glomerular inflammation ([2]; listed as Compound 1): reduced
- glomerular endocapillary proliferation ([2]; on-treatment kidney biopsy compared to pre-treatment biopsy): clearance
- glomerular inflammatory macrophages ([2]; on-treatment/repeat biopsies compared to pre-treatment, CD68 staining (FIG. 2)): marked decrease; also recorded: reduction
- glomerular endocapillary hypercellularity ([2]; repeat biopsies, PAS staining after treatment (FIG. 2)): resolution; also recorded: reduction
